Measured values reported in patent US9815862B2, “Polymorphs of LNnT” (Glycom A/S, priority 2012, dated 2017).

Key:
[1] = Storage of crystalline polymorph in an open vessel, checked by XRPD; type: physicochemical; conditions: stored in an open vessel at ambient temperature and humidity for a week
Description: XRPD investigation of the collected crystals was conducted with a Philips PW 1830/PW 1050 instrument in transmission geometry, using CuKα radiation made monochromatic by means of a graphite monochromator. D-spacings were calculated from the 2Θ values, based on a wavelength of 1.54186 Å. As a general rule the 2Θ values have an error rate of […].

[2] = Redissolution of the precipitate formed from aqueous LNnT solution; type: physicochemical; conditions: white precipitate from aqueous solution stored at 2-8° C. or room temperature
Description: Amorphous spray-dried LNnT (6.0087 g, water content: 2.67%, purity: 99.2% by HPAEC) was dissolved in HPLC water (10.66 ml). Dissolution was reached by shaking. Two samples of 1 ml solution were stored at 2-8° C. (sample 1) and room temperature (sample 2), respectively, for 4 weeks. […] The precipitation was collected by filtration and dried at atmospheric pressure.

SMILES	change in XRPD pattern on storage (solid-state stability) [1]	redissolution of the precipitated crystals [2]
CC(=O)N[C@H]1[C@H](O[C@H]2[C@@H](O)[C@@H](CO)O[C@@H](O[C@H]3[C@H](O)[C@@H](O)C(O)O[C@@H]3CO)[C@@H]2O)O[C@H](CO)[C@@H](O[C@@H]2O[C@H](CO)[C@H](O)[C@H](O)[C@H]2O)[C@@H]1O (mixture of isomers) [LNnT polymorph V, lacto-N-neotetraose]	no substantial change in its XRPD pattern can be observed	–
CC(=O)N[C@H]1[C@H](O[C@H]2[C@@H](O)[C@@H](CO)O[C@@H](O[C@H]3[C@H](O)[C@@H](O)C(O)O[C@@H]3CO)[C@@H]2O)O[C@H](CO)[C@@H](O[C@@H]2O[C@H](CO)[C@H](O)[C@H](O)[C@H]2O)[C@@H]1O (mixture of isomers) [LNnT polymorph IV, lacto-N-neotetraose]	–	can be redissolved only when ultrasonicated for 3 hours at 50 °C
